Data reported in article PMC11605732, “In vitro screening of UGT2B10 in silico prioritized putative ligands from drugs used in the pediatric hematopoietic stem cell transplantation setting” (Pharmacology Research & Perspectives, 2024).
Like-named read-outs stand apart in the source and are kept apart here.

Tests used:
UGT2B10 [1] = target: T1, UGT2B10 (Homo sapiens, UniProt P36537); assay: inhibition of cotinine N-glucuronidation at […], UHPLC-MS/MS; type: biochemical; conditions: read-out: % inhibition at 10 μM
T1 construct: recombinant UGT2B10
T1 sequence (P36537 24-528): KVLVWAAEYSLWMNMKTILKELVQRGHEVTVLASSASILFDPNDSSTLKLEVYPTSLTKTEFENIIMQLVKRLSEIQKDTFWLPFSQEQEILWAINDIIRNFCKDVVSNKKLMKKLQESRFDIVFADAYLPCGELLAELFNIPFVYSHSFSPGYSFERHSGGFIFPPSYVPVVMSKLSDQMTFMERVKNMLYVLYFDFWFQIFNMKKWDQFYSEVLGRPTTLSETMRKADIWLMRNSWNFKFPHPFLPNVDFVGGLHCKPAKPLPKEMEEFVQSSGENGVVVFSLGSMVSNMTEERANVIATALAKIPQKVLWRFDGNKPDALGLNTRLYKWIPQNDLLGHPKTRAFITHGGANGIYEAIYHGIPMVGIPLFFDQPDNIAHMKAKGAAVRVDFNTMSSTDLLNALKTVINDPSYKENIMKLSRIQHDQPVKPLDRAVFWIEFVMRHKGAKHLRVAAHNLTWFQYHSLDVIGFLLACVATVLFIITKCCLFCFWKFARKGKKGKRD

UGT1A6 = target: T2, UGT1A6 (Homo sapiens, UniProt P19224); assay: glucuronide formation by recombinant enzyme, UHPLC-MS/MS; type: biochemical
T2 construct: recombinant UGT1A6
T2 sequence (P19224 27-532): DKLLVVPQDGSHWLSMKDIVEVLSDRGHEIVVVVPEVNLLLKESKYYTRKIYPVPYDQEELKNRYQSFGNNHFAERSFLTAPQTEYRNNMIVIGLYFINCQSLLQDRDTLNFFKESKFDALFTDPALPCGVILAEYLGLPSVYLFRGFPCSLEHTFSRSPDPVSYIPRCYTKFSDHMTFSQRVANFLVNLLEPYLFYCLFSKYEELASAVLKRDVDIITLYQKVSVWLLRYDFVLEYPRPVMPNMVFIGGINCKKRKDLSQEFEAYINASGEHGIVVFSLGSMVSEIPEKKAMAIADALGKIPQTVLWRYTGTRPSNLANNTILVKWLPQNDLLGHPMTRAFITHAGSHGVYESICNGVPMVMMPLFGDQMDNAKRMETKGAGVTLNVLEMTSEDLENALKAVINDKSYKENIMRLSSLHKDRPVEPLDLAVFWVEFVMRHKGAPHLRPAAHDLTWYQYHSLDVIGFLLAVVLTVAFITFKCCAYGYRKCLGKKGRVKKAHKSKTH

UGT2B10 [2] = target: T1, UGT2B10; assay: inhibition of cotinine N-glucuronidation by recombinant enzyme, UHPLC-MS/MS; type: biochemical
purified protein = substrate: CN1C(=O)CC[C@H]1c1cccnc1; assay: purified protein; conditions: UDPGA; MgCl2

Molecule: CN(C)CCC=C1c2ccccc2CCc2ccccc21 [AMT, amitriptyline]
- inhibition at 10 µM (UGT2B10 [1]): 97.5%

Molecule: CC(=O)Nc1ccc(O)cc1 [APAP, acetaminophen]
- glucuronide formation by recombinant enzyme, UHPLC-MS/MS (UGT1A6): incubations of APAP and MPA with UGT1A6 produced APAP‐glucuronide and MPA‐ß‐D‐glucuronide, respectively

Molecule: O=C1Nc2ccc(Cl)cc2C(c2ccccc2Cl)=NC1O (stereo not drawn) [LOR, lorazepam]
- IC50 (UGT2B10 [2]): 0.01 µM

Molecule: COc1c(C)c2c(c(O)c1C/C=C(\C)CCC(=O)O)C(=O)OC2 [MPA, mycophenolic acid]
- IC50 (UGT2B10 [2]; read-out: IC50): 380 µM
- glucuronide formation by recombinant enzyme, UHPLC-MS/MS (UGT1A6): incubations of APAP and MPA with UGT1A6 produced APAP‐glucuronide and MPA‐ß‐D‐glucuronide, respectively

B1: UGT2B10 (Homo sapiens) (protein)
chain: KVLVWAAEYSLWMNMKTILKELVQRGHEVTVLASSASILFDPNDSSTLKLEVYPTSLTKTEFENIIMQLVKRLSEIQKDTFWLPFSQEQEILWAINDIIRNFCKDVVSNKKLMKKLQESRFDIVFADAYLPCGELLAELFNIPFVYSHSFSPGYSFERHSGGFIFPPSYVPVVMSKLSDQMTFMERVKNMLYVLYFDFWFQIFNMKKWDQFYSEVLGRPTTLSETMRKADIWLMRNSWNFKFPHPFLPNVDFVGGLHCKPAKPLPKEMEEFVQSSGENGVVVFSLGSMVSNMTEERANVIATALAKIPQKVLWRFDGNKPDALGLNTRLYKWIPQNDLLGHPKTRAFITHGGANGIYEAIYHGIPMVGIPLFFDQPDNIAHMKAKGAAVRVDFNTMSSTDLLNALKTVINDPSYKENIMKLSRIQHDQPVKPLDRAVFWIEFVMRHKGAKHLRVAAHNLTWFQYHSLDVIGFLLACVATVLFIITKCCLFCFWKFARKGKKGKRD
- Km (purified protein): 4.043 mM
